Measurements taken from ChEMBL document CHEMBL1143305, “SAR and biological evaluation of analogues of a small molecule histone deacetylase inhibitor N-(2-aminophenyl)-4-((4-(pyridin-3-yl)pyrimidin-2-ylamino)methyl)benzamide (MGCD0103)” (Bioorg Med Chem Lett, 2009).
≈ marks a conversion by molar mass, not a printed value.

Columns and labels:
[1] = test system: Mus musculus; experiment: Toxicity in mouse xenografted with human AZ-521 cells at 5 to 20 mg/kg, po administered once daily for 12 days; assay type: organism-based; parameters: dose 5-20 mg/kg, route oral; conditions: in vivo, 288 h
[2] = Volume of distribution at steady state in Sprague-Dawley rat at 2.5 mg/kg, iv up to 6 hrs; assay type: ADME, organism-based; parameters: dose 2.5 mg/kg, route intravenous; conditions: in vivo, read-out: Vdss
[3] = target: T1, Protein deacetylase HDAC6 (Homo sapiens, UniProt Q9UBN7); experiment: Inhibition of HDAC6
T1 sequence (Q9UBN7 whole entry): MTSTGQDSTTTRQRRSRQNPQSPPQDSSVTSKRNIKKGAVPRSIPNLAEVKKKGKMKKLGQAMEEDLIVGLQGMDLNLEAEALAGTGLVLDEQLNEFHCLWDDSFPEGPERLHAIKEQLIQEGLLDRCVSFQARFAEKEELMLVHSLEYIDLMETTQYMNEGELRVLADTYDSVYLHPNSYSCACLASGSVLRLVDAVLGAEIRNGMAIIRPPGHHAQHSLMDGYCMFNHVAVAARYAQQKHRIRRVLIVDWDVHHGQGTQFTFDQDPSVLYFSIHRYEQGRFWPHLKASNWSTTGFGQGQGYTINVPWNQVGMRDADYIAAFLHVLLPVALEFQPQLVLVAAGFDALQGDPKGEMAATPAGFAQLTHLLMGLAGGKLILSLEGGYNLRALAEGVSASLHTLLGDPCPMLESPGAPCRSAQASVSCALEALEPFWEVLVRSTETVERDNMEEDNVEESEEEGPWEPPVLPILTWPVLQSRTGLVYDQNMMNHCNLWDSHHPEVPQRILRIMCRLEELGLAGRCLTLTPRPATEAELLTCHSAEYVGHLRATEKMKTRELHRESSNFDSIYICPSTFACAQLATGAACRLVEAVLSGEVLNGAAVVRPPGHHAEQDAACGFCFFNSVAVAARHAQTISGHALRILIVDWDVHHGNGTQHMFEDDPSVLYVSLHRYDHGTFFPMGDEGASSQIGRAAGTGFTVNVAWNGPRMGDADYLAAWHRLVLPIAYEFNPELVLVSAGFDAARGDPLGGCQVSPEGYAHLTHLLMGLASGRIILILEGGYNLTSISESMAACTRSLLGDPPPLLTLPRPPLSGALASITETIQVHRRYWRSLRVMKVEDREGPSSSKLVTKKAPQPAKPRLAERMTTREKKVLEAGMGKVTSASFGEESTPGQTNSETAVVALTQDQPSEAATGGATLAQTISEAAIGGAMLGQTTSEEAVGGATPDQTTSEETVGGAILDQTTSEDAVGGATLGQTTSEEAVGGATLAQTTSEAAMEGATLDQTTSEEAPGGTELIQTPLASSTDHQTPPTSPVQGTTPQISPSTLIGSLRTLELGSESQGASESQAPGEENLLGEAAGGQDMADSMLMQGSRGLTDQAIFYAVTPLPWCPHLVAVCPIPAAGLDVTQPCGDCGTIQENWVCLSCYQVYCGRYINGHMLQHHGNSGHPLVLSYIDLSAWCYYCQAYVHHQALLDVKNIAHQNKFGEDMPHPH

[4] = test system: HMEC; experiment: Selectivity ratio of IC50 for HMEC to IC50 for human HCT116 cells
[5] = test system: HMEC; experiment: Antiproliferative activity against HMEC by MTT assay; assay type: cell-based; conditions: Homo sapiens
[6] = Antitumor activity against human TSU-Pr1 cells xenografted in mouse at 20 mg/kg, po administered once daily for 12 days relative to control; assay type: functional
[7] = target: Histone deacetylase 3 (Homo sapiens, UniProt O15379); experiment: Inhibition of HDAC3
[8] = Terminal half life in Sprague-Dawley rat at 2.5 mg/kg, iv up to 6 hrs; assay type: ADME, organism-based; parameters: dose 2.5 mg/kg, route intravenous; conditions: in vivo, read-out: beta t1/2 (converted)
[9] = Metabolic stability in human microsomes assessed as biotransformation rate; assay type: ADME, Microsome
[10] = test system: Mus musculus; experiment: Toxicity in mouse xenografted with human HCT15 cells at 5 to 20 mg/kg, po administered once daily for 12 days; assay type: organism-based, HCT-15; parameters: dose 5-20 mg/kg, route oral; conditions: in vivo, 288 h
[11] = Clearance in Sprague-Dawley rat at 2.5 mg/kg, iv up to 6 hrs; assay type: ADME, organism-based; parameters: dose 2.5 mg/kg, route intravenous; conditions: in vivo
[12] = target: T2, Histone deacetylase 8 (Homo sapiens, UniProt Q9BY41); experiment: Inhibition of HDAC8
T2 sequence (Q9BY41 whole entry): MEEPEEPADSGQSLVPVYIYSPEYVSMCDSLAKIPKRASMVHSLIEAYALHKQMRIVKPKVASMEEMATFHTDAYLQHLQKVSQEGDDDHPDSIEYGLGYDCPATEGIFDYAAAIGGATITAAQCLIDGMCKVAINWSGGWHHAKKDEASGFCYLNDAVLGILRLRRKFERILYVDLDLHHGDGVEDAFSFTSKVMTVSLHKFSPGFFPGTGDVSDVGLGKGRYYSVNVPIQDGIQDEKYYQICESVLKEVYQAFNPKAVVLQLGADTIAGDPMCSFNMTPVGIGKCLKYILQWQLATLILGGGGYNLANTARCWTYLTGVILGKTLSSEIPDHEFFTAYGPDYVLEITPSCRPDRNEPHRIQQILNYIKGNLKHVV

[13] = Solubility at pH 6.8; assay type: physicochemical; conditions: buffer
[14] = test system: T-24; experiment: Induction of histone H4 hyperacetylation in human T24 cells after 16 hrs by immunoblotting; assay type: functional, cell-based; conditions: T-24, 16 h
[15] = target: Histone deacetylase 1 (Homo sapiens, UniProt Q13547); experiment: Inhibition of human recombinant HDAC1
[16] = test system: Mus musculus; experiment: Toxicity in mouse xenografted with human TSU-Pr1 cells at 5 to 20 mg/kg, po administered once daily for 12 days; assay type: organism-based; parameters: dose 5-20 mg/kg, route oral; conditions: in vivo, 288 h
[17] = target: Histone deacetylase 5 (Homo sapiens, UniProt Q9UQL6); experiment: Inhibition of HDAC5
[18] = Antitumor activity against human TSU-Pr1 cells xenografted in mouse at 10 mg/kg, po administered once daily for 12 days relative to control; assay type: functional
[19] = test system: HCT-116; experiment: cells; conditions: Homo sapiens
Description: Antiproliferative activity against human HCT116 cells by MTT assay

Chain of Histone deacetylase 1 (Q13547 whole entry): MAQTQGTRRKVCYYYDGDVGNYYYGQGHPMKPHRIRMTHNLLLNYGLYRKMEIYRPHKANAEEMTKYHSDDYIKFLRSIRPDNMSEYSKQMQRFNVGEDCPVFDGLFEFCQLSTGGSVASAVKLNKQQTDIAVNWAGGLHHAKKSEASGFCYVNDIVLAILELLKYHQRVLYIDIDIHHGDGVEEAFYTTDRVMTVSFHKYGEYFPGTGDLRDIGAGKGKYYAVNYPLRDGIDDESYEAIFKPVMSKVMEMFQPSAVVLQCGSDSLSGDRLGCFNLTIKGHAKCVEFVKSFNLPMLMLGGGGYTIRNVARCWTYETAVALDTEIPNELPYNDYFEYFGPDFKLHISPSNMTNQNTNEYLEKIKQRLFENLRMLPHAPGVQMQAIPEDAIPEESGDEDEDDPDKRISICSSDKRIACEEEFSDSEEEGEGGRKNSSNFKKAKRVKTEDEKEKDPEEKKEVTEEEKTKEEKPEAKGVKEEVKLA
Chain of Histone deacetylase 5 (Q9UQL6 whole entry): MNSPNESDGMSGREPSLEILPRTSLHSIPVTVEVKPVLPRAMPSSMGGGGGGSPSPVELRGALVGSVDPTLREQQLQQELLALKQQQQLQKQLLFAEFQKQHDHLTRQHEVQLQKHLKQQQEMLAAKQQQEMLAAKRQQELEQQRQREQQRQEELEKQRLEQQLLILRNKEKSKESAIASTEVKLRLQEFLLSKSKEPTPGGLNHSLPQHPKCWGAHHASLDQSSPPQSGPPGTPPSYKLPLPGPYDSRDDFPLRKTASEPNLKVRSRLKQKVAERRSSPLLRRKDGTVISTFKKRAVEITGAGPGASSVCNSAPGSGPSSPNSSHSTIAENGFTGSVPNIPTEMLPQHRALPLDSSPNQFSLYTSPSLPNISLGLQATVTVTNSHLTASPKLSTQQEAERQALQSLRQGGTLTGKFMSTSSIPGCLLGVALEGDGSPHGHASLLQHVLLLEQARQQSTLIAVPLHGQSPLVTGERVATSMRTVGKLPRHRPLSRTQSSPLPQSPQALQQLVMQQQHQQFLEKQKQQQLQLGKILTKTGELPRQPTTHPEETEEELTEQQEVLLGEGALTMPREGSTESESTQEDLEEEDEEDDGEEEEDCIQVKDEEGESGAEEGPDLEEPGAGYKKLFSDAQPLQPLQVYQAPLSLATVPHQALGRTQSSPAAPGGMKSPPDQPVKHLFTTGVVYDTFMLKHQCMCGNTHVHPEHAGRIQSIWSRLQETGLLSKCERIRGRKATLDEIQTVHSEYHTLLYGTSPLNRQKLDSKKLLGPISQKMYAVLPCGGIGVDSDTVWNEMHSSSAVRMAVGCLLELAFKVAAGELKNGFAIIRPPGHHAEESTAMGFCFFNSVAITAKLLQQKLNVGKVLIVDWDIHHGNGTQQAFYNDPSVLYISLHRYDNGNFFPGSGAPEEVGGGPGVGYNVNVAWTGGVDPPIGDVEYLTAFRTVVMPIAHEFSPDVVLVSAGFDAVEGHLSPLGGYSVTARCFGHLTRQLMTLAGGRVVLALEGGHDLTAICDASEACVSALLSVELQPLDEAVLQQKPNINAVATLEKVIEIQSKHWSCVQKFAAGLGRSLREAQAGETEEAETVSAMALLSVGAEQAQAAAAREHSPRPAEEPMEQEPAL
Chain of Histone deacetylase 3 (O15379 whole entry): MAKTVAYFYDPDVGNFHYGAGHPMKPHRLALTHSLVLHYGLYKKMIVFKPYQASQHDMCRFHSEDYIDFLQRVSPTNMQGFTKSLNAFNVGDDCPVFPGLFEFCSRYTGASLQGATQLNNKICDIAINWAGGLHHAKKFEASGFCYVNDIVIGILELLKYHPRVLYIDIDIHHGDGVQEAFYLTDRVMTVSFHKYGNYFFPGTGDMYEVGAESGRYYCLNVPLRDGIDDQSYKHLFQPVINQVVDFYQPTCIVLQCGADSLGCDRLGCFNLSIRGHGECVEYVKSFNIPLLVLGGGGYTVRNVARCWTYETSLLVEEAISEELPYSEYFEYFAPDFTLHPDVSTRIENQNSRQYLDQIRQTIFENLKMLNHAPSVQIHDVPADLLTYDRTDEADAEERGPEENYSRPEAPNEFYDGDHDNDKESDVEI

## Nc1ccccc1NC(=O)c1ccc(CNc2nccc(-c3ccn[nH]3)n2)cc1
[1]
  Activity: Non-toxic
[2]
  Vd: 0.13 L/kg
[3]
  IC50: > 20000 nM
[4]
  Ratio IC50: >30
[5]
  IC50: 24000 nM
[6]
  T/C: 48%
[7]
  IC50: 320 nM
[8]
  half-life: 1.2 h
[9]
  Activity: 0.01 nmol/mg/min
[10]
  Activity: Non-toxic
[11]
  clearance: 9.17 mL/min/kg
[12]
  IC50: > 10000 nM
[13]
  solubility: 77 µg/mL (≈ 200 µM)
[14]
  EC50: 1000 nM
[15]
  IC50: 140 nM
[16]
  Activity: Non-toxic
[17]
  IC50: > 10000 nM
[18]
  T/C: 61%
[19]
  IC50: 300 nM
